A melting point compilation (Tetko et al.; mined from patent text by program, amines drawn as free bases though some values may be those of a salt)

melting point	SMILES
83 to 85 °C	O=C(c1ccccc1)N1CCC(CO)CC1
160 to 161 °C	Brc1cc2c(cc1Br)Sc1ccccc1S2
82 to 83 °C	Oc1c(C2=CCCCC2)ccc2ccccc12
176 to 178 °C	CCc1noc(C)c1-c1[nH]c2ccccc2c1CC(=O)N(C)C
129 to 130 °C	CC(=O)Oc1cc(OCc2ccccc2)cc(OC(C)=O)c1
132 to 136 °C	COC(=O)c1cc(CS(=O)c2ccccc2)cnc1C1=NC(C)(C(C)C)C(=O)N1 (stereo unspecified)
93 °C	CN(C)S(=O)(=O)n1c(C#N)nc2ccccc21
118 to 124 °C	O=S=c1cc(-c2ccc(O)cc2)ss1
120 to 122 °C	COc1ccccc1N1CCN(CC(O)COc2ccccc2CC(N)=O)CC1 (stereo unspecified)
232 to 234 °C	Nc1ncccc1C(=O)NCCCOc1ccc(-c2ccc(=O)[nH]n2)cc1
254 to 256 °C	Cc1cc(S(F)(F)(F)(F)F)c(S(C)(=O)=O)cc1C(=O)NC(=N)N
126 to 128 °C	NC(=O)N(O)CC=Cc1ccccc1Sc1ccc(Cl)cc1
83 to 85 °C	CCCC(Cc1ccc(OCc2ccccc2)cc1)C(=O)O (stereo unspecified)
120 to 121 °C	Cc1[nH]c2ccccc2c1CCC(=O)N1CCN(c2ccccc2)CC1
113 to 114 °C	CC(C)CC1(C(CC(C)N2C(=O)c3ccccc3C2=O)C(=O)NO)CCN(CCc2ccccc2)C1=O (stereo unspecified)
292 to 295 °C	CSc1nc(=O)n(-c2ccc(Cl)cc2)c(=O)[nH]1
173 to 174 °C	Cc1oc(-c2ccccc2)nc1CCC(=O)c1ccc(CCC2OC(=O)NC2=O)cc1 (stereo unspecified)
147 to 149 °C	O=C1N(CC2COCCO2)c2ccccc2C12COc1cc3c(cc12)OCO3 (stereo unspecified)
93 to 98 °C	CCOC(=O)C(C)c1ccc2cc(O)ccc2c1 (stereo unspecified)
83 to 87 °C	CCNc1cc([N+](=O)[O-])ccc1OCCOC
201 to 203 °C	COC(=O)C=Nc1cc(Cl)ccc1C(=O)O
160 to 162 °C	CC(C)(ON=C(C(=O)O)c1ccco1)C(N)=O
256 to 259 °C	O=C1NC(=O)c2c1c(-c1ccccc1Cl)cc1oc3cc(CCCCO)c(O)cc3c21

melting point	SMILES
275 °C	CCc1nnc(-c2ccc(O)cc2)n1-c1ccccc1
160 to 162 °C	COc1ccc2ccccc2c1/C=C/NC=O
164 to 168 °C	CCN1C(=O)C(C)(C(=O)O)Oc2ccccc21 (stereo unspecified)
80 °C	Nc1ccc(NC(=O)C=C2CC(C(=O)OCc3ccccc3)Nc3cc(Cl)cc(Cl)c32)cc1 (racemic)
270 °C	CC(C)CN1C(=O)N(C)C2(NC(=O)NC2=O)c2ccccc21 (stereo unspecified)
176 to 178 °C	CCN(CC)CC1CCCCN1CC(=O)N1c2ccccc2NC(=O)c2c1c(C)cn2C (stereo unspecified)
84 to 85 °C	CSc1ncccc1NC(=O)CCCCCCCCSc1nc2ccccc2o1
158 to 159 °C	Nc1n[nH]c(Nc2ccccc2)n1
217 °C	COc1cc(C(=O)NCc2ccc(-c3csc(N)n3)s2)cc(OC)c1OC
109 to 111 °C	COC(=O)CN1CCC(C(=O)Oc2ccc([N+](=O)[O-])cc2)CC1
185 to 186 °C	Oc1nn(-c2ccccc2)cc1Cc1ccccc1
135 °C	O=C(NCCc1ccccc1F)[C@@H]1Cc2ccccc2N1
81 to 84 °C	COc1ccc(CNc2nc(OCc3ccccn3)ncc2C(=O)c2ccccn2)cc1Cl
171 to 174 °C	COC(=O)OC(Cc1ccc(OCCc2nc(-c3ccccc3)oc2C)cc1)C(N)=O (stereo unspecified)
144 to 150 °C	COC(=O)c1cc(O)cc(C(=O)CS(C)=O)c1 (stereo unspecified)
132 to 133 °C	CC(C)(C)OC(=O)N1CCN(c2ccc(N3CCN(Cc4ccccc4)CC3)cc2)CC1
99 to 100 °C	CS(=O)CC(=O)c1ccccc1N (stereo unspecified)
107 to 108 °C	COC(=N)c1ccc(-c2ccccc2[N+](=O)[O-])o1
145 to 149 °C	Cc1nc(N)nc(N)c1C#CCc1ccccc1
206 to 208 °C	O=C1Nc2ccccc2C1=C(c1ccc(Cl)cc1)c1ccc(Cl)cc1
125 to 140 °C	CC(C)Cn1c(C(O)c2ccccc2)nc2c(N)nc3ccccc3c21 (stereo unspecified)
93 to 95 °C	COC(=O)COc1ccc(C(=O)CCN2CCN(c3ccncc3)CC2)cc1

The next lines start with the compound.

SMILES	melting point
O=S(=O)(Nc1ccc2c(OCc3ccc(-c4ccccc4)cc3Cl)cccc2c1)C(F)(F)F	131 to 134 °C
CCCc1c(CSc2nnc(SCCCS(=O)(=O)CC(=O)O)s2)ccc(C(C)=O)c1O	122 to 125 °C
Cn1cc(-c2cccc(Br)c2)c(=O)c(-c2cccc(C(F)(F)F)c2)c1	151 to 153 °C
CCCn1c(=O)n(CC(C)O)c(=O)c2[nH]c(C34CC5CC(CC3C5)C4)nc21 (stereo unspecified)	195 to 197 °C
C#CC1C2=C(c3ccc(OCc4ccccc4[N+](=O)[O-])cc3N1C(=O)Oc1ccccc1)C(O[Si](C)(C)C(C)(C)C)CCC2 (stereo unspecified)	188 to 190 °C
CC(=O)Nc1cc(C(C)(C)C)c(Cl)cc1CN(C)C1CCCCC1	174 to 176 °C
O=C(c1ccc(Cn2cnc3ccncc32)cc1)N1CCOCC1	143 to 144 °C
Cc1c(Cl)n(C2OC(CO)C(O)C2O)c2cc(Cl)c(Cl)cc12 (stereo unspecified)	190 to 191 °C
N#Cc1cc(OCCOCC2CC2)ccc1OCC(O)CNCCNC(=O)Nc1ccccc1 (stereo unspecified)	110 to 113 °C
CC(=O)N1CC(C)(C)c2cc3[nH]nnc3cc21	281 to 283 °C
CN1C(=O)C(C(=O)Nc2ccc(F)cc2)S(=O)(=O)c2ccc(Cl)cc21 (stereo unspecified)	234 to 236 °C
O=C1c2ccccc2C(=O)c2c1cccc2N1CCNCC1	190 °C
CC(NC(=O)c1cc(Cl)ccc1NC(=O)c1cc(Br)nn1-c1ncccc1Cl)C1CC1 (stereo unspecified)	231 to 233 °C
CC(=O)c1cc(-c2ccc(S(C)(=O)=O)cc2)n(-c2ccc(F)cc2)n1	207 to 209 °C
COc1cc(OCc2cccnc2)ccc1/C=C/c1cc(/C=C/c2cccc3cc[nH]c23)n[nH]1	122 to 129 °C
Cc1cccc(C2C(C#N)=C(C3CC3)Nc3n[nH]cc32)c1[N+](=O)[O-] (stereo unspecified)	265 °C
COC(=O)c1cn2c3c(c(N4CCCC4)c(F)cc3c1=O)CCN2C	203 to 206 °C
O=C(O)c1cccc(S(=O)(=O)Oc2ccc(-c3ccc(-c4c(Cc5ccccc5)oc5ccccc45)cc3)cc2)c1	169 to 171 °C
CCCCc1ccc(CN(CCC(C)(C)C)C(=O)Nc2c(C)cc(Cl)cc2C)cc1	138 to 139 °C

SMILES	melting point
O=C1N[C@@H](CC2CCCCC2)[C@H]1O	147 to 148 °C
Cc1nc2ccc(N3CC4CNCC4C3)nn2c1-c1ccnc(CN)c1 (stereo unspecified)	169 °C
CCC(O)(CC)c1csc(-c2cccc(OCc3ccc(CO)c(CO)c3)c2)c1	47 °C
O=C(Nc1ccc(-n2nc(C(F)(F)F)cc2C(F)(F)F)cc1)c1ccncc1[N+](=O)[O-]	207 to 209 °C
COc1nc(N)nn1C	177 to 180 °C
CC(=O)Nc1nc2c(s1)-c1c(cnn1-c1ccc(C(=O)N3CCC(NC(=O)Cc4ccccc4)CC3)cc1)CC2	271 to 272 °C
COC(CN(C)C(=O)Nc1ccc(Oc2cccc(C(F)(F)F)c2)cc1)OC	86 to 88 °C
CN1CCN(c2ccc(Nc3nc(N)c(C(=O)c4c(F)cccc4F)s3)cc2)CC1	168 to 170 °C
O=c1cc(-c2ccncn2)nc2n1CCCCC2	148 to 150 °C
COC(=O)C(C)Oc1ccc(Nc2cc(NC(C)=O)c(F)cc2[N+](=O)[O-])cc1 (stereo unspecified)	126 to 128 °C
N#Cc1cc([N+](=O)[O-])ccc1OC12CC3CC(CC(C3)C1)C2	187 to 189 °C
CC(C)(O)C#Cc1cc(C(F)(F)F)cc(C(F)(F)F)c1	74.5 to 74.8 °C
Cc1cccc(N(C)C(=O)NC2N=C(c3ccccc3F)c3ccccc3N(CC(=O)N3CC4CCC(CC4)C3)C2=O)c1 (racemic)	207 to 212 °C
C#CCNC1=Nc2ccc(Cl)cc2C(c2ccccc2)=NC1	202 °C
COc1c(C)c2c(c(O)c1C/C=C1\CCC(C(=O)O)C1)C(=O)OC2 (stereo unspecified)	128 to 130 °C
CCc1cnn(CC(=O)O)c1OCCCc1cn(-c2ccc(C(F)(F)F)cn2)nc1C(CC)CC	124 to 125 °C
O=C1c2ccccc2C(=O)N1CCN1CCC(=C(c2ccccc2)c2ccccc2)CC1	106 to 108 °C
N#CC(=Cc1ccc2c(c1)OCCO2)c1cccnc1	158 to 159 °C
NS(=O)(=O)c1cc(NC(=O)c2cnn3c(C(F)(F)F)cc(-c4ccc(C(F)(F)F)cc4)nc23)c(Cl)s1	275 °C

SMILES	melting point
CS(=O)(=O)c1ccc(-c2cnn(C3CCC3)c(=O)c2-c2ccc(F)cc2)cc1	202 to 203 °C
Nc1nc2c(ncn2CCC(COCc2ccccc2)COCc2ccccc2)c(=O)[nH]1	210 to 224 °C
CCCCCCCCC=CCCCCCCCC(=O)CCCNC(=O)CCNC(C)=O	123 to 125 °C
CC(C)CC(S)C(=O)NC(CC(C)C)C(=O)NC(Cc1ccc(-c2cccs2)nc1)C(=O)O (stereo unspecified)	156 to 158 °C
OCc1cnc2c(F)c(F)c(F)cc2c1-c1cccs1	126 to 128 °C
COc1cc(OC)nc(NC(=O)NS(=O)(=O)c2sccc2C(CCl)OC(C)=O)n1 (stereo unspecified)	150 to 151 °C
COc1cc2oc(=O)c3c(c2cc1OC)CCN(CCN1CC2CCCC(C2)C1)C3	122 to 125 °C
CCCN(CCC)C1Cn2cnc3cccc(c32)C1C (stereo unspecified)	78 to 84 °C
COc1ccc2c(c1)CCC1CC(=O)NN=C21 (stereo unspecified)	198 °C
COc1cc(NC(=O)CCCCCN2CCCN(C)CC2)c2nccc(C)c2c1	74 to 77 °C
Cc1ccc(F)cc1C1CC(=O)c2c(C)ccnc2C1 (stereo unspecified)	113 to 114 °C
CCCCCCCCOC(=O)c1nc(Cl)c(Cl)nc1N	85 °C
CCOC(=O)c1ncn2c1CN=C(Cl)c1cc(OC)ccc1-2	186 °C
CN(C)S(=O)(=O)c1cc2c(c(Cl)c1Cl)OC(CCl)C2 (stereo unspecified)	77 to 78 °C
N#Cc1ccc(NCc2cccc(F)c2)cc1	63 to 64 °C
CCCC1=NC(=NOC(=O)NC)SC1(C)CC (stereo unspecified)	124 to 126 °C
O=C(C=Cc1cc(F)cc(F)c1)c1cnc2sc3c(n12)CCCCC3	207 to 209 °C
O=[N+]([O-])c1cccc2cc(-c3nccs3)[nH]c12	130 to 131 °C
